Counter-ions that a name gives are not always drawn. Like-named read-outs stand apart in the source and are kept apart here.
How the values were obtained:
[1] = cited from earlier work
Sprague-Dawley rats = experiment: Rat cold ethanol tail-flick test; type: in vivo; conditions: for % Analgesic effect 10% / % Analgesic effect 20% / % Analgesic effect 50%: 25 micromole per kg, intramuscularly
[2] = tested on: New Zealand white rabbits; experiment: Paw pressure test; type: in vivo; conditions: Figure 20
[3] = Plasma concentration after intramuscular injection (HPLC) in the paw pressure study; conditions: for half-life: rabbit, plasma, im
[4] = Percutaneous transport study in modified Franz diffusion cells; conditions: 37 °C
[5] = Figure 15; between 17 and 28 hours, p<0.05
[6] = Anesthesiology, vol.74, 53, 1991
[7] = in sesame oil, duration in days

## CO[C@]12CC[C@@]3(C[C@@H]1[C@](C)(O)C(C)(C)C)[C@H]1Cc4ccc(O)c5c4[C@@]3(CCN1CC1CC1)[C@H]2O5 [buprenorphine]
[1]; [6]
  dose needed to elicit the same analgesic effect: 0.3 mg

## Oc1ccc2c(c1)[C@@]13CCCC[C@@]1(O)[C@@H](C2)N(CC1CCC1)CC3 [butorphanol]
[1]; [6]
  dose needed to elicit the same analgesic effect: 2 mg

## CN1CC[C@]23c4c5ccc(O)c4O[C@H]2[C@@H](O)C=C[C@H]3[C@H]1C5 [morphine]
[1]; in vivo
  dose needed to elicit the same analgesic effect: 10 mg

## O=C(Oc1ccc2c3c1O[C@H]1[C@@H](O)CC[C@@]4(O)[C@@H](C2)N(CC2CCC2)CC[C@]314)c1ccccc1 [nalbuphine benzoate]
Sprague-Dawley rats; [7]
  % Analgesic effect 10%: 4.0 D
  % Analgesic effect 20%: 4.0 D
  % Analgesic effect 50%: 3.5 D

## CCCCCCCCCC(=O)Oc1ccc2c3c1O[C@H]1[C@@H](O)CC[C@@]4(O)[C@@H](C2)N(CC2CCC2)CC[C@]314 [nalbuphine decanoate]
[2]; 0.
  analgesic effect for intramuscular injection (duration): 18 h
[3]; […]
  half-life: 1560 min
[3]; rabbits, Figure 19
  increase of duration compared with nalbuphine hydrochloride: 30 times
[4]; under 24 hours, 5% nalbuphine decanoate in a jel of 2% CMC Na
  cumulative amount: 1.04±0.30 µ g/cm^2
[4]; under 24 hours, jell containing 10% terpineol (5% nalbuphine decanoate, 2% CMC Na)
  cumulative amount: 3.31±0.45 µg/cm^2
[4]; under 48 hours, 5% nalbuphine decanoate in a jel of 2% CMC Na
  cumulative amount: 1.67±0.38 µg/cm^2
[4]; under 48 hours, jell containing 10% terpineol (5% nalbuphine decanoate, 2% CMC Na)
  cumulative amount: 5.78±0.81 µ g/cm^2
[4]; under 72 hours, 5% nalbuphine decanoate in a jel of 2% CMC Na
  cumulative amount: 3.17±0.35 µ g/cm^2
[4]; under 72 hours, jell containing 10% terpineol (5% nalbuphine decanoate, 2% CMC Na)
  cumulative amount: 9.87±1.44 µg/cm^2
Sprague-Dawley rats; [7]
  % Analgesic effect 10%: 8.2 D
  % Analgesic effect 20%: 7.5 D
  % Analgesic effect 50%: 6.7 D
Sprague-Dawley rats; table 2, longest duration
  10% analgesic effect: 197 h
  50% analgesic effect: 161 h

## CCCCCCC(=O)Oc1ccc2c3c1O[C@H]1[C@@H](O)CC[C@@]4(O)[C@@H](C2)N(CC2CCC2)CC[C@]314 [nalbuphine enanthate]
Sprague-Dawley rats; [7]
  % Analgesic effect 10%: 3.6 D
  % Analgesic effect 20%: 3.4 D
  % Analgesic effect 50%: 3.0 D

## Oc1ccc2c3c1O[C@H]1[C@@H](O)CC[C@@]4(O)[C@@H](C2)N(CC2CCC2)CC[C@]314 [nalbuphine hydrochloride, reference compound]
[2]; 10 mg/kg
  analgesic effect for intramuscular injection (duration): 0.75 h
[3]
  half-life: 51 min
Sprague-Dawley rats; duration in hours
  % Analgesic effect 10%: 5.0 H
  % Analgesic effect 20%: 4.4 H
  % Analgesic effect 50%: 2.5 H
Sprague-Dawley rats; rats, intramuscular injection
  10% analgesic effect: 2.4 h
  20% analgesic effect: 2.1 h
Sprague-Dawley rats; rats, intramuscular injection, 25 micromole/kg
  50% analgesic effect: 1.1 h
Sprague-Dawley rats; table 2
  10% analgesic effect: 12 h
  50% analgesic effect: 2.5 h

## CC(C)(C)C(=O)Oc1ccc2c3c1O[C@H]1[C@@H](O)CC[C@@]4(O)[C@@H](C2)N(CC2CCC2)CC[C@]314 [nalbuphine pivalate]
Sprague-Dawley rats; [7]
  % Analgesic effect 10%: 3.8 D
  % Analgesic effect 20%: 3.6 D
  % Analgesic effect 50%: 3.2 D

## CCC(=O)Oc1ccc2c3c1O[C@H]1[C@@H](O)CC[C@@]4(O)[C@@H](C2)N(CC2CCC2)CC[C@]314 [nalbuphine propionate]
Sprague-Dawley rats; duration in hours
  % Analgesic effect 10%: 12 H
  % Analgesic effect 20%: 11 H
  % Analgesic effect 50%: 10 H
Sprague-Dawley rats; table 2
  50% analgesic effect: 10 h

## Oc1ccc2c3c1O[C@H]1[C@@H](O)CC[C@@]4(O)[C@@H](C2)N(CC2CCC2)CC[C@]314 [nalbuphine]
[5]
  amount of released nalbuphine free base: less in preparations with sesame oil than with peanut oil ester and the control

From patent EP0615756B1 (priority 1993, dated 1994)
